Values quoted from earlier work in patent US6921495B2, “Environmentally compatible defrosting and antifreeze agents for aeroplanes” (Clariant GmbH, priority 2001, dated 2005).
Like-named read-outs stand apart in the source and are kept apart here.

Row | Molecule | LD50 oral rat (rat; oral) | LCO in Brachydanio rerio (Brachydanio rerio; in vivo) | LD50 oral rat (rat; in vivo, po) | LCO in Brachydanio rerio (Brachydanio rerio; Brachydanio rerio)
1 | Tolyltriazole | 675 mg/kg | 42.2 mg/L |  | 
2 | c1ccc2[nH]nnc2c1 [benzotriazole] |  |  | 560 mg/kg | 100 mg/L
